Test results taken from patent US6407058B1, “Modifying the permeability of physiological barriers” (Eisai Co., Limited, priority 1996, dated 2002).

Experiments:
Type in all cases: cell-based
p100/p120 [1] = test: immunofluorescence localisation of p100/p120, MDCK I cells; details: PDB-treated vs control
Text: It has been shown that although some of the p100/p120 in cells is associated with adherens junctions, there is also a large pool that is not complexed with cadherins (at least by immunoprecipitation analysis). […] This procedure served to isolate only that portion of the cellular p100/p120 that associates with the cadherins. Following electrophoresis, and transfer to nitrocellulose, the p100 and p120 present in E-cadherin immunoprecipitates were detected by immunoblotting (Example 9A). […] In both cases, p100/p120 is shown to be present at regions of cell—cell contact.
Cells were fixed at room temperature for 20 minutes in 3% paraformaldehyde made up in PBS containing 0.5 mM CaCl2 and 0.5 mM MgSO4. Fixed cells were washed and then permeabilized by incubation with 0.5% Triton X-100 in PBS for 10 minutes. After washing, the cells were incubated for 30 minutes in PBS containing 10% calf serum and 0.1 M lysine, pH 7.4. Incubation with p120 antibody (0.5 μg/ml) was in PBS containing 10% calf serum for 1 hour. After washing, the cells were then incubated for 60 minutes with a 1:100 dilution of FITC-conjugated anti-mouse IgG (Jackson Immunoresearch Labs), in PBS containing 10% calf serum. After washing, the filters were mounted with Citifluor (Citifluor Products, Canterbury, UK) and examined using a Nikon Microphot-FXA fluorescence microscope fitted with 40× and 60× objectives. […]

E-cadherin = E-cadherin electrophoretic mobility by immunoblotting, MDCK I cells; details: 200 nM PDB, 30 minutes
Protocol: The migration of the cellular proteins p100 and p120 during electrophoresis is increased following PDB-treatment of MDCK I cells. PDB (phorbol-12,13-dibutyrate) is a pharmacological activator of protein kinase C. MDCK I cells are a kidney derived epithelial cell line, with particularly well developed junctional complexes. Cells treated for 30 minutes with either 200 nM PDB (+) or vehicle (−) were then lysed into Laemmli sample buffer, and separated by electrophoresis using 6% acrylamide gels. Proteins were transferred to nitrocellulose and probed with antibodies to p100/p120, and then reprobed with E-cadherin and paxillin antibodies.
Cell extracts or immunoprecipitates in SDS sample buffer were resolved by SDS-PAGE. The slab gels were then equilibrated in buffer comprising; 48 mM Tris, 39 mM glycine, 20% methanol and 0.03% SDS. Proteins were transferred to nitrocellulose filters (Hybond ECL; Amersham), which were Ponceau S stained and then blocked for 2 hours at 37° C. with 1% BSA in PBS containing 0.05% Tween-20. Filters were then probed with p120 antibody, at a dilution of 1:2500. […] The filters were then extensively washed in PBS/0.5% Tween-20, and immunoreactive bands were detected by enhanced chemiluminescence (Amersham) following the manufacturers instructions.

p100/p120 [2] = test: p100/p120 electrophoretic mobility, primary pig brain endothelial cells (PBECs); details: PBECs, 200 nM PDB, 30 minutes
Protocol: Cells were treated with or without 200 nM PDB for 30 minutes, lysed into Laemmli sample buffer, separated by electrophoresis and analysed by immunoblotting with antibodies recognising p100 and p120.
MDCK strain I and II cells were provided by Barry Gumbiner (memorial Sloan-Kettering Cancer Center, NY). LLC-PK1 and Caco-2 cells were obtained from the European Collection of Animal Cell Cultures. All cells were maintained at 37° C. under 5% CO2 in humidified air. MDCK strain I and II cells were maintained in MEM containing 10% FCS, 100 U/ml penicillin, 100 μg/ml streptomycin and 2 mM L-glutamine. Caco-2 cells were maintained in MEM containing 15% FCS, 1% non-essential amino acids and 1 μg/ml bovine insulin (Sigma I-6634). LLC-PK1 cells were grown in M199 (Gibco), 10% FCS, 100 U/ml penicillin, 100 μg/ml streptomycin and 2 mM L-glutamine. For whole cell lysate analysis, 10^5 cells were plated on 6.5 mm diameter, 0.4 μm, polycarbonate Transwell filters from Costar, in 0.25 ml of medium. The basolateral chamber contained 0.75 ml of medium. For immunoprecipitation, 5×10^5 cells were plated onto 24 mm Transwell filters, in 2 ml of medium, with 3 ml of medium in the lower chamber. Cells were used 4-7 days after plating. Tissue culture materials were from Gibco. Porcine brain endothelial cells were isolated and grown by modifications of a previously published procedure (Rubin et al., 1991). Brain capillary fragments were plated on dishes coated with rat tail collagen and human fibronectin. The cultures were fed every other day with growth medium composed of 50% astrocyte-conditioned medium and 50% Dulbecco's Modified Eagle Medium containing 10% plasma-derived serum, 125 μg/ml heparin, antibiotics and glutamine. They were incubated in a humidified atmosphere of 10% CO2 at 37° C. When the endothelial cells were approximately 50% confluent (after 4-6 days in culture), they were trypsinized and plated onto collagen-coated polycarbonate Transwell filters (6.5 mm diameter, 0.4 μm pore size, tissue culture treated, Costar Corp, Cambridge, Mass., U.S.A.) in the same medium (250 μl apically, 750 μl basolaterally). After 2-3 days on filters, the medium was switched to a 1:1 mixture of astrocyte-conditioned medium and a Dulbecco's Modified Eagle Medium-based, chemically defined medium (‘N2’, Rubin et al., 1991; Bottenstein and Sato, 1979). The final concentration of plasma-derived serum was 5%. Human umbilical vein endothelial cells were from Clonetics.
Whole cell lysates were prepared by rapidly replacing the culture medium in 6.5 mm with hot Laemmli sample buffer, followed by heating at 100° C. for 5 minutes. Immunoprecipitations were carried out at 4° C. Confluent monolayers of cells were washed rapidly with ice cold PBS (containing 0.9 mM CaCl2 and 0.5 mM MgCl2) before addition of 0.5 ml of the appropriate buffer. The filters were then gently scraped, and the lysate was removed and centrifuged at 14000× g. The supernatant was precleared with 10% (w/v) protein A-Sepharose in lysis buffer for 30-60 minutes. Appropriate primary antibodies were added to the lysate, and after 2-3 hours the immunecomplex was isolated, using rabbit anti-mouse secondary antibodies (Jackson Immunoresearch Labs Inc., West Grove, Pa.) and protein A-Sepharose.

## CCCC(=O)O[C@@H]1[C@@H](C)[C@@]2(O)[C@@H](C=C(CO)C[C@]3(O)C(=O)C(C)=C[C@@H]23)[C@@H]2C(C)(C)[C@]12OC(=O)CCC [PDB, Phorbol-12,13-dibutyrate]
p100/p120 [1]
  localisation of p100 and p120: no change in the localisation
E-cadherin
  effect on E-cadherin migration: no effect
p100/p120 [2]
  mobility of p100 and p120: the mobility of p100 and p120 increased
